From article PMC6181319, “Thermodynamic and computational analyses reveal the functional roles of the galloyl group of tea catechins in molecular recognition” (PLoS ONE, 2018)
Where two headings read alike, the source gives them in different places. Marks after values point to notes of the source that are not given here. Blank lines part the entries; values can stand above or below the compound they belong to.

What was measured:
[1] = biological target: T1, human serum albumin (HSA) (Homo sapiens, UniProt P02768); assay: Differential scanning calorimetry (DSC), thermal stability of HSA–ligand complexes; conditions: for Tm: DSC, HSA 50 μM, ligand 500 μM, 50 mM sodium phosphate pH 6.8, HSA alone 68.6 ± 0.1; for ΔTm at 500 µM: human, pH 6.8
T1 sequence (P02768 25-609): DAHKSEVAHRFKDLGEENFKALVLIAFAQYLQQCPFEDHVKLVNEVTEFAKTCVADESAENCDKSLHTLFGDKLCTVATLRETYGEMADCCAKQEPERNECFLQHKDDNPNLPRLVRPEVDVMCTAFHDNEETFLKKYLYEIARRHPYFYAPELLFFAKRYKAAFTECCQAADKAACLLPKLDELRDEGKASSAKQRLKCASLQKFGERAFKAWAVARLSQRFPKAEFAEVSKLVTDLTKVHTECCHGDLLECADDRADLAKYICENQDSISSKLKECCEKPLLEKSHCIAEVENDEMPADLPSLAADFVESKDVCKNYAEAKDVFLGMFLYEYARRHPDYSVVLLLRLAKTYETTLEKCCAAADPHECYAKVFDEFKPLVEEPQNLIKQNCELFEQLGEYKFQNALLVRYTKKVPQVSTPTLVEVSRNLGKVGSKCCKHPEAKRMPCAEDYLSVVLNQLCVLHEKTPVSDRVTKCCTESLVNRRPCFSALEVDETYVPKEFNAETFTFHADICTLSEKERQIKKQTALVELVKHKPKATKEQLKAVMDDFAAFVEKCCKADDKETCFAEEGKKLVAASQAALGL
Description: The thermal stabilities of HSA and the HSA–ligand complexes were determined by differential scanning calorimetry in a VP-DSC autosampler instrument (GE Healthcare). The cell was heated from 303 to 363 K at a rate of 1 K min^−1. The concentrations of HSA and the ligands were 50 and 500 μM, respectively, in a buffer composed of 50 mM sodium phosphate (pH 6.8). The data analysis was carried out with the Origin software (ver. 7) using a two-state model.

[2] = biological target: T1, human serum albumin (HSA); assay: Isothermal titration calorimetry (ITC) of binding of catechins and analogs to HSA; design: purchased Sigma-Aldrich Japan (Tokyo, Japan); conditions: for change of binding affinity with addition of 0.2 M NaCl: 0.2 M NaCl versus no NaCl
Description: The binding of the catechins and its analogs to HSA was examined in a VP-ITC instrument (Microcal Northampton, MA). […] The data were analyzed with the Origin software (ver. 7) by means of a single-binding-site model. The thermodynamic parameters were obtained from three replicate titrations, where the dilution heats of the ligands were subtracted.

site I of HSA = biological target: T2, site I of HSA (Homo sapiens, UniProt P02768); assay: ITC competition assay with warfarin (site I marker); type: binding; conditions: HSA 50 μM, catechin 500 μM, warfarin 500 μM titrated, pH 6.8, 1% DMSO
T2 construct: purchased Sigma-Aldrich Japan (Tokyo, Japan)
T2 sequence (P02768 25-609): as above
Description: To obtain information about the HSA binding site of catechins, we carried out competition assays using ITC. Warfarin was used as a marker for monitoring site I of HSA. […] Warfarin was titrated into the cell containing either HSA or an HSA-EGCg complex at 180-s intervals with constant stirring at 307 rpm. The total amount of heat obtained for each measurement was taken as the total heat quantity (ΔQ), and we verified whether warfarin and the catechins bound to the same site by comparing the ΔQ from the interaction between HSA and warfarin. The binding inhibition rate was defined by the equation belowcalculated as follows: […]

[3] = human serum albumin (HSA) 50 µM in buffer
[4] = S1 Table, ITC binding affinity listed beside Tm, read-out: KD
[5] = Table 1, ITC, 298 K, 50 mM sodium phosphate pH 6.8
[6] = Table 1, ITC, 298 K, 50 mM sodium phosphate pH 6.8, HSA 50 μM, single-binding-site model
[7] = Table 1, ITC, 298 K, 50 mM sodium phosphate pH 6.8, read-out: KD
[8] = S2 Table, NaCl 0.2 M, read-out: KD
[9] = Table 2, methylated catechin derivatives, ITC, 298 K

Structure (SMILES): Oc1cc(O)c2c(c1)O[C@@H](c1ccc(O)c(O)c1)[C@H](O)C2 [C, (+)-catechin]
Tm [1]: 68.5 ± 0.1 °C
ΔTm at 500 µM [1, 3]: -0.1 °C
Kd [2, 4]: 5 ± 8.6 µM
ΔH/ΔG ([2]; Table 1, ITC, 298 K): 4%
ΔG [2, 5]: -7.1 ± 0.6 kcal/mol
ΔH [2, 5]: -0.3 ± 0.1 kcal/mol
−TΔS [2, 5]: -6.8 ± 0.7 kcal/mol
N (number of binding sites) [2, 6]: 1.0 ± 0.2
Kd [2, 7]: 5 ± 8.6 µM

Structure (SMILES): O=C(O[C@@H]1Cc2c(O)cc(O)cc2O[C@H]1c1ccc(O)c(O)c1)c1cc(O)c(O)c(O)c1 [Cg, (−)-catechin gallate]
Tm [1]: 71.7 ± 0.1 °C
ΔTm at 500 µM [1, 3]: 3.1 °C
thermodynamic profile of binding (enthalpy-driven or entropy-driven) ([2]; ITC, 298 K): entropy-driven
Kd [2, 4]: 3.5 ± 0.5 µM
ΔH/ΔG ([2]; Table 1, ITC, 298 K): 38%
ΔG [2, 5]: -7.4 ± 0.1 kcal/mol
ΔH [2, 5]: -2.8 ± 0.6 kcal/mol
−TΔS [2, 5]: -4.6 ± 0.7 kcal/mol
N (number of binding sites) [2, 6]: 1.0 ± 0.1
Kd [2, 7]: 3.5 ± 0.5 µM

Structure (SMILES): Oc1cc(O)c2c(c1)O[C@H](c1cc(O)c(O)c(O)c1)[C@H](O)C2 [EGC, (−)-epigallocatechin]
Tm [1]: 68.8± 0.2 °C
ΔTm at 500 µM [1]: 0.2 °C
change of binding affinity with addition of 0.2 M NaCl ([2]; ITC): increased
thermodynamic profile of binding (enthalpy-driven or entropy-driven) ([2]; ITC, 298 K): entropy-driven
Kd ([2]; KD, S1 Table, ITC binding affinity listed beside Tm): 20 ± 16 µM
Kd ([2]; KD, S2 Table, NaCl 0 M): 19.5 µM
Kd ([2]; KD, S2 Table, NaCl 0.2 M): 6.7 µM
Kd ([2]; KD, Table 1, ITC, 298 K, 50 mM sodium phosphate pH 6.8): 20 ± 16 µM
ΔH/ΔG ([2]; Table 1, ITC, 298 K): 10%
ΔG [2, 5]: -6.3 ± 0.4 kcal/mol
ΔH [2, 5]: -0.6 ± 0.4 kcal/mol
−TΔS [2, 5]: -5.8 ± 0.7 kcal/mol
N (number of binding sites) [2, 6]: 1.0 ± 0.2
binding site compared with warfarin (site I of HSA): identical

Structure (SMILES): O=C(O[C@@H]1Cc2c(O)cc(O)cc2O[C@@H]1c1cc(O)c(O)c(O)c1)c1cc(O)c(O)c(O)c1 [EGCg, (−)-epigallocatechin gallate]
Tm [1]: 71.4 ± 0.3 °C
ΔTm at 500 µM [1, 3]: 2.7 °C
change of binding affinity with addition of 0.2 M NaCl ([2]; ITC): decreased
thermodynamic profile of binding (enthalpy-driven or entropy-driven) ([2]; ITC, 298 K): enthalpy-driven
Kd [2, 4]: 2.2 ± 0.3 µM
Kd [2, 8]: 27.3 µM
N ([2]; S3 Table, temperature 288 K): 1.1±0.1
ΔG ([2]; S3 Table, temperature 288 K): -7.4 ± 0.1 kcal/mol
ΔH ([2]; S3 Table, temperature 288 K): -3.9 ± 0.5 kcal/mol
−TΔS ([2]; S3 Table, temperature 288 K): -3.5 ± 0.5 kcal/mol
Kd ([2]; S3 Table, temperature 288 K, read-out: KD): 2.3 ± 0.1 µM
N ([2]; S3 Table, temperature 293 K): 1.1±0.1
ΔG ([2]; S3 Table, temperature 293 K): -7.6 ± 0.7 kcal/mol
ΔH ([2]; S3 Table, temperature 293 K): -4.7 ± 0.7 kcal/mol
−TΔS ([2]; S3 Table, temperature 293 K): -2.9 ± 0.8 kcal/mol
Kd ([2]; S3 Table, temperature 293 K, read-out: KD): 2.1 ± 0.7 µM
N ([2]; S3 Table, temperature 298 K): 1.1±0.1
ΔG ([2]; S3 Table, temperature 298 K): -7.8 ± 0.4 kcal/mol
ΔH ([2]; S3 Table, temperature 298 K): -5.7 ± 0.7 kcal/mol
−TΔS ([2]; S3 Table, temperature 298 K): -2.1 ± 0.6 kcal/mol
Kd ([2]; S3 Table, temperature 298 K, read-out: KD): 2 ± 0.4 µM
N ([2]; S3 Table, temperature 303 K): 1.1±0.1
ΔG ([2]; S3 Table, temperature 303 K): -7.9 ± 0.8 kcal/mol
ΔH ([2]; S3 Table, temperature 303 K): -6.1 ± 0.2 kcal/mol
−TΔS ([2]; S3 Table, temperature 303 K): -1.8 ± 0.3 kcal/mol
Kd ([2]; S3 Table, temperature 303 K, read-out: KD): 2.1 ± 0.8 µM
ΔH/ΔG ([2]; Table 1, ITC, 298 K): 61%
ΔG [2, 5]: -7.7 ± 0.1 kcal/mol
ΔH [2, 5]: -4.7 ± 0.6 kcal/mol
−TΔS [2, 5]: -3.0 ± 0.6 kcal/mol
N (number of binding sites) [2, 6]: 1.1 ± 0.1
Kd [2, 7]: 2.2 ± 0.3 µM
ΔG [2, 9]: -7.7 ± 0.1 kcal/mol
−TΔS [2, 9]: -3.0 ± 0.6 kcal/mol
N (number of binding sites) ([2]; Table 2, methylated catechin derivatives, ITC, 298 K, 50 mM sodium phosphate pH 6.8): 1.1 ± 0.1
Kd ([2]; Table 2, methylated catechin derivatives, ITC, 298 K, 50 mM sodium phosphate pH 6.8, read-out: KD): 2.2 ± 0.3 µM
ΔCp (change in heat capacity) ([2]; slope of ΔH versus temperature, 288 to 303 K): −148 cal mol^−1 K^−1
binding site compared with warfarin (site I of HSA): identical

More lines, now with the values ahead:

Tm [1]: 68.7 ± 0.3 °C
ΔTm at 500 µM [1, 3]: 0 °C
change of binding affinity with addition of 0.2 M NaCl ([2]; ITC): increased
thermodynamic profile of binding (enthalpy-driven or entropy-driven) ([2]; ITC, 298 K): entropy-driven
Kd [2, 4]: 49 ± 18 µM
Kd ([2]; S2 Table, NaCl 0 M, read-out: KD): 48.7 µM
Kd [2, 8]: 0.7 µM
ΔH/ΔG ([2]; Table 1, ITC, 298 K): 13%
ΔG [2, 5]: -5.8 ± 0.2 kcal/mol
ΔH [2, 5]: -0.8 ± 0.2 kcal/mol
−TΔS [2, 5]: -5.1 ± 0.4 kcal/mol
N (number of binding sites) [2, 6]: 1.0 ^b
Kd [2, 7]: 49 ± 18 µM
Structure (SMILES): Oc1cc(O)c2c(c1)O[C@H](c1ccc(O)c(O)c1)[C@H](O)C2 [EC, (−)-epicatechin]

Tm [1]: 72.2 ± 0.1 °C
ΔTm at 500 µM [1, 3]: 3.5 °C
change of binding affinity with addition of 0.2 M NaCl ([2]; ITC): decreased
thermodynamic profile of binding (enthalpy-driven or entropy-driven) ([2]; ITC, 298 K): enthalpy-driven
Kd [2, 4]: 1.1 ± 0.1 µM
Kd [2, 8]: 3.7 µM
ΔH/ΔG ([2]; Table 1, ITC, 298 K): 63%
ΔG [2, 5]: -8.1 ± 0.1 kcal/mol
ΔH [2, 5]: -5.1 ± 0.5 kcal/mol
−TΔS [2, 5]: -3.1 ± 0.5 kcal/mol
N (number of binding sites) [2, 6]: 1.0 ± 0.1
Kd [2, 7]: 1.1 ± 0.1 µM
Structure (SMILES): O=C(O[C@@H]1Cc2c(O)cc(O)cc2O[C@@H]1c1ccc(O)c(O)c1)c1cc(O)c(O)c(O)c1 [ECg, (−)-epicatechin gallate]
